{"source": "paper PMC10463376", "about": "“Design, synthesis, in vitro anticancer, molecular docking and SAR studies of new series of pyrrolo[2,3-d]pyrimidine derivatives” (BMC Chemistry, 2023)", "assay_type_in_all_cases": "cell-based, human", "key": {"[1]": {"tested_on": "DR4", "test": "RT-qPCR DR4 mRNA in Paca2", "conditions": "17 vs both Dox. and negative control", "procedure": "(§1) All of the extractions were conducted on ice with ice-cold reagents. Total RNA from the different cell lines was isolated using Trizol (Invitrogen; Life Technologies, USA) according to the method of Sthoeger et al.. The 260:280 ratios were measured to determine RNA quality after the isolation method was completed according to the manufacturer’s instructions. A high-capacity cDNA reverse transcription kit was used to produce complementary DNA (cDNA) (Applied Biosystems, USA). […] The relative gene expression method (i.e., ΔΔCT) was used to analyze the real-time PCR data, as explained in Applied Biosystem User Bulletin No. 2. Each sample and gene were normalized using the β-actin gene."}, "[2]": {"tested_on": "CDK4", "test": "RT-qPCR CDK4 mRNA in Paca2", "conditions": "17 vs both Dox. and negative control", "procedure": "as §1"}, "[3]": {"tested_on": "Casp-3", "test": "RT-qPCR Casp-3 mRNA in A549", "procedure": "as §1"}, "[4]": {"tested_on": "BAX", "test": "RT-qPCR BAX mRNA in Paca2", "conditions": "17 vs both Dox. and negative control", "procedure": "as §1"}, "[5]": {"tested_on": "P53", "test": "RT-qPCR P53 mRNA in Paca2", "conditions": "17 vs both Dox. and negative control", "procedure": "as §1"}, "[6]": {"tested_on": "DR4", "test": "RT-qPCR DR4 mRNA in A549", "procedure": "as §1"}, "[7]": {"tested_on": "DR5", "test": "RT-qPCR DR5 mRNA in Paca2", "conditions": "17 vs both Dox. and negative control", "procedure": "as §1"}, "[8]": {"tested_on": "Bcl-2", "test": "RT-qPCR Bcl-2 mRNA in A549", "conditions": "A549, vs negative control", "procedure": "as §1"}, "[9]": {"tested_on": "P53", "test": "RT-qPCR P53 mRNA in A549", "conditions": "A549, vs negative control", "procedure": "as §1"}, "[10]": {"tested_on": "Casp-3", "test": "RT-qPCR Casp-3 mRNA in Paca2", "conditions": "17 vs both Dox. and negative control", "procedure": "as §1"}, "[11]": {"tested_on": "BAX", "test": "RT-qPCR BAX mRNA in A549", "conditions": "A549, vs negative control", "procedure": "as §1"}, "[12]": {"tested_on": "IL-8", "test": "RT-qPCR IL-8 mRNA in Paca2", "conditions": "17 vs both Dox. and negative control", "procedure": "as §1"}, "[13]": {"tested_on": "pancreatic cell line (Paca2)", "test": "DNA fragmentation assay, Paca2", "conditions": "Paca2, IC50, 24 h, vs negative control (P < 0.01); 17 higher than Dox.", "procedure": "The DNA fragmentation assay in a pancreatic cell line (Paca2), breast cancer cell lines (MCF-7) and lung cell line (A549) was performed in concordance with the premises established by Yawata with some modifications. Briefly, after 24 h of exposure of Paca2, MCF-7 and A549 cancer cell lines to the prepared compounds in different Petri dishes (60 × 15 mm, Greiner), the cells were suspended and homogenized in 1 ml of medium and then centrifuged for 10 min at 900 rpm. The genomic DNA was extracted as shown in Yawata. About 1 × 10^6 cells of each tested cancer cell line were treated with the IC50 values of the tested compounds. All the cells were collected via trypsinization and washed with Dulbecco`s Phosphate Buffered Saline. Then, the cells were treated with the lysis buffer containing 5 mM ethylenediaminetetraacetic acid (EDTA), 10 mM Tris (pH 7.4), 0.5% Triton X-100 and 150 mM NaCl for 35 min on ice. […] Finally, the percentage of fragmented DNA was determined by performing gel electrophoresis using 2% agarose gel containing 0.1 μg/ml ethidium bromide.\nPancreatic cancer cell line (Paca2), breast cancer cell line (MCF-7) and lung cancer cell line (A549) were used to determine the percentage of DNA fragmentation after the treatment with IC50 of the tested compounds. […] The percentage of fragmented DNA was measured from the absorbance reading at 600 nm wavelength using the following formula: […]"}, "[14]": {"tested_on": "MCF7 cells", "test": "Flow cytometric cell cycle analysis (PI), MCF7", "conditions": "MCF7, 24 h, IC50 concentration; for cell cycle arrest (phase): vs untreated control; for percentage of cells in the G0/G1 phase: control 11.43%", "procedure": "Herein, the negative control was the untreated MCF7 cells and Doxorubicin was used as a positive control. Firstly, after the treatment time of 24 h, MCF7 cells were centrifuged at 1000 rpm for 5 min at 4 °C. The supernatant was discarded and the cells pellet were washed in phosphate-buffered saline (PBS). Then, the cells pellet were centrifuged at 1000 rpm for another 5 min. Afterward, the cells were collected in a single-cell suspension and maintained in 70% ethanol overnight on ice. Then, cells were washed with 1 ml PBS. At last, 200 µl 1 × propidium iodide (PI) mixture was added to the cells pellet in the dark at room temperature for 30 min. Then, the DNA content was analyzed by subjecting the cells to an Epics XL-MCL flow cytometer (Beckman Coulter, Miami, FL). The distribution of cells at different phases of the cell cycle was determined by Multi-cycle software (Phoenix Flow Systems, San Diego, CA)."}}, "note": "Entries after “also recorded” stand apart in the source; their conditions may differ.", "data": [{"compound": "COc1cccc2c1C(=O)c1c(O)c3c(c(O)c1C2=O)C[C@@](O)(C(=O)CO)C[C@@H]3O[C@H]1C[C@H](N)[C@H](O)[C@H](C)O1", "note": "[Dox, Doxorubicin, reference compound]", "values": [{"measurement": "DR4 mRNA level", "setting": "[1]", "value": "no significant difference"}, {"measurement": "CDK4 mRNA level", "setting": "[2]", "value": "no significant difference"}, {"measurement": "Casp-3 mRNA level", "setting": "[3]", "value": "up-regulated"}, {"measurement": "BAX mRNA level", "setting": "[4]", "value": "no significant difference"}, {"measurement": "P53 mRNA level", "setting": "[5]", "value": "no significant difference"}, {"measurement": "DR4 mRNA level", "setting": "[6]", "value": "up-regulated"}, {"measurement": "DR5 mRNA level", "setting": "[7]", "value": "no significant difference"}, {"measurement": "Bcl-2 mRNA level", "setting": "[8]", "value": "down-regulated"}, {"measurement": "P53 mRNA level", "setting": "[9]", "value": "up-regulated"}, {"measurement": "Casp-3 mRNA level", "setting": "[10]", "value": "no significant difference"}, {"measurement": "BAX mRNA level", "setting": "[11]", "value": "up-regulated"}, {"measurement": "IL-8 mRNA level", "setting": "[12]", "value": "no significant difference"}, {"measurement": "DNA fragmentation rate", "setting": "[13]", "value": "increased significantly"}]}, {"compound": "CN1CCN(c2nc(C(Cl)(Cl)Cl)nc3c2c(-c2ccc(Br)cc2)c(Cl)n3-c2ccc(Cl)cc2Cl)CC1", "note": "[Compound 17, 5-(4-bromophenyl)-6-chloro-7-(2,4-dichlorophenyl)-4-(4-methylpiperazin-1-yl)-2-(trichloromethyl)-7H-pyrrolo[2,3-d]pyrimidine]", "values": [{"measurement": "DR4 mRNA level", "setting": "[1]", "value": "up-regulated"}, {"measurement": "CDK4 mRNA level", "setting": "[2]", "value": "lowered"}, {"measurement": "BAX mRNA level", "setting": "[4]", "value": "up-regulated"}, {"measurement": "P53 mRNA level", "setting": "[5]", "value": "up-regulated"}, {"measurement": "DR5 mRNA level", "setting": "[7]", "value": "up-regulated"}, {"measurement": "Casp-3 mRNA level", "setting": "[10]", "value": "up-regulated"}, {"measurement": "IL-8 mRNA level", "setting": "[12]", "value": "lowered"}, {"measurement": "DNA fragmentation rate", "setting": "[13]", "value": "increased significantly"}]}, {"compound": "COc1ccc(-c2c(Cl)n(-c3ccc(Cl)cc3Cl)c3ncnc(NN)c23)cc1OC", "note": "[Compound 14b, 6-chloro-7-(2,4-dichlorophenyl)-5-(3,4-dimethoxyphenyl)-4-hydrazineyl-7H-pyrrolo[2,3-d]pyrimidine]", "values": [{"measurement": "cell cycle arrest (phase)", "setting": "[14]", "value": "G1 and S phases; also recorded: G1/S phase"}, {"measurement": "percentage of cells in the G0/G1 phase", "setting": "[14]", "value": 85.98, "unit": "%"}]}, {"compound": "COc1ccc(-c2c(Cl)n(-c3ccc(Cl)cc3Cl)c3ncnc(Cl)c23)cc1OC", "note": "[Compound 4b, 4,6-dichloro-7-(2,4-dichlorophenyl)-5-(3,4-dimethoxyphenyl)-7H-pyrrolo[2,3-d]pyrimidine]", "values": [{"measurement": "Casp-3 mRNA level", "setting": "[3]", "value": "up-regulated"}, {"measurement": "DR4 mRNA level", "setting": "[6]", "value": "up-regulated"}, {"measurement": "Bcl-2 mRNA level", "setting": "[8]", "value": "down-regulated"}, {"measurement": "P53 mRNA level", "setting": "[9]", "value": "up-regulated"}, {"measurement": "BAX mRNA level", "setting": "[11]", "value": "up-regulated"}]}, {"compound": "NNc1ncnc2c1c(-c1ccc(Br)cc1)c(Cl)n2-c1ccc(Cl)cc1Cl", "note": "[Compound 14a, 5-(4-bromophenyl)-6-chloro-7-(2,4-dichlorophenyl)-4-hydrazineyl-7H-pyrrolo[2,3-d]pyrimidine]", "values": [{"measurement": "cell cycle arrest (phase)", "setting": "[14]", "value": "G1 and S phases; also recorded: G1/S phase"}, {"measurement": "percentage of cells in the G0/G1 phase", "setting": "[14]", "value": 68.60, "unit": "%"}]}]}
